Tests used:
Format in all cases: in vivo
[1] = tested on: Russian thistle (Salsola iberica); assay: Test B pre-/postemergence plant response; conditions: Preemergence
How it was run: (§1)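 Preemergence and postemergence (plants 2-18 cm, 1- to 4-leaf stage) applications used test chemicals in a non-phytotoxic solvent with surfactant. Plants were held in a greenhouse 13 to 15 days, then rated visually against controls on a 0-100 scale (0 no effect, 100 complete control).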

[2] = tested on: velvetleaf (Abutilon theophrasti); assay: Test B pre-/postemergence plant response; conditions: Preemergence; for Velvetleaf plant response rating: scale 0 to 100
How it was run: as §1

corn (Zea mays) = assay: Test B pre-/postemergence plant response; conditions: Preemergence
How it was run: as §1

[3] = tested on: bermudagrass (Cynodon dactylon); assay: Test B pre-/postemergence plant response; conditions: Preemergence
How it was run: as §1

[4] = tested on: Italian ryegrass (Lolium multiflorum); assay: Test B pre-/postemergence plant response; conditions: Preemergence
How it was run: as §1

[5] = tested on: yellow nutsedge (Cyperus esculentus); assay: Test B pre-/postemergence plant response; conditions: Preemergence
How it was run: as §1

[6] = tested on: downy bromegrass (Bromus tectorum); assay: Test B pre-/postemergence plant response; conditions: Preemergence
How it was run: as §1

[7] = tested on: woolly cupgrass (Eriochloa villosa); assay: Test B pre-/postemergence plant response; conditions: Preemergence
How it was run: as §1

[8] = tested on: giant foxtail (Setaria faberii); assay: Test B pre-/postemergence plant response; conditions: Preemergence
How it was run: as §1

[9] = tested on: cocklebur (Xanthium strumarium); assay: Test B pre-/postemergence plant response; conditions: Preemergence
How it was run: as §1

[10] = tested on: umbrella sedge (Cyperus difformis); assay: Test B flooded paddy test plant response
How it was run: (§2)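 2-leaf plants; pots flooded 3 cm above soil; compound added to paddy water; depth maintained. Greenhouse 13–15 d. Visual rating vs controls, 0 (no effect) to 100 (complete control); dash = no result.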

[11] = tested on: barnyardgrass (Echinochloa crus-galli); assay: Test B flooded paddy test plant response
How it was run: as §2

[12] = tested on: ducksalad (Heteranthera limosa); assay: Test B flooded paddy test plant response
How it was run: as §2

rice (Oryza sativa) = assay: Test B flooded paddy test plant response
How it was run: as §2

[13] = 31 g ai/ha, scale 0 to 100 (0 no effect, 100 complete control)
[14] = 31 g ai/ha, 0 to 100 scale, 0 no effect, 100 complete control
[15] = 16 g ai/ha, scale 0 to 100 (0 no effect, 100 complete control)
[16] = Flood (flooded paddy test), 62 g ai/ha, scale 0 to 100, 0 no effect, 100 complete control
[17] = Flood (flooded paddy test), 125 g ai/ha, scale 0 to 100, 0 no effect, 100 complete control
[18] = Flood (flooded paddy test), 250 g ai/ha, scale 0 to 100, 0 no effect, 100 complete control
[19] = Flood, 31 g ai/ha, scale 0 to 100

Cc1cc(-c2ccc(Cl)cc2)nn1-c1c(OS(=O)(=O)c2ccc(Cl)s2)cnn(C)c1=O [Compound 55]
90: Plant response rating, Ryegrass, Italian [4, 13] | Foxtail, Giant plant response rating ([8]; 8 g ai/ha, scale 0 to 100)
100: Bermudagrass plant response rating ([3]; 8 g ai/ha, scale 0 to 100 (0 no effect, 100 complete control)) | Plant response rating, Bermudagrass [3, 15] | Plant response rating, Bermudagrass [3, 14] | Plant response rating, Bermudagrass ([3]; 62 g ai/ha, scale 0 to 100) | Plant response rating, Ryegrass, Italian ([4]; 62 g ai/ha, scale 0 to 100) | Plant response rating, Cupgrass, Woolly [7, 14] | Plant response rating, Cupgrass, Woolly ([7]; 62 g ai/ha, scale 0 to 100) | Plant response rating, Foxtail, Giant [8, 14] | Plant response rating, Foxtail, Giant ([8]; 62 g ai/ha, scale 0 to 100)
65: Plant response rating, Barnyardgrass [11, 18]
15: Cupgrass, Woolly plant response rating ([7]; 8 g ai/ha, scale 0 to 100)
98: Foxtail, Giant plant response rating ([8]; 16 g ai/ha, scale 0 to 100)
70: Ryegrass, Italian plant response rating ([4]; 16 g ai/ha, scale 0 to 100) | Plant response rating, Sedge, Umbrella [10, 16]
75: Plant response rating, Sedge, Umbrella [10, 17] | Plant response rating, Ducksalad [12, 18]
30: Plant response rating, Bromegrass, Downy [6, 14] | Plant response rating, Rice (rice (Oryza sativa); [18])
60: Ryegrass, Italian plant response rating ([4]; 8 g ai/ha, scale 0 to 100) | Plant response rating, Bromegrass, Downy ([6]; 62 g ai/ha, scale 0 to 100)
0: Plant response rating, Russian Thistle [1, 13] | Plant response rating, Russian Thistle ([1]; 62 g ai/ha, scale 0 to 100) | Russian Thistle plant response rating ([1]; 8 g ai/ha, scale 0 to 100) | Russian Thistle plant response rating ([1]; 16 g ai/ha, scale 0 to 100) | Plant response rating, Velvetleaf [2, 13] | Plant response rating, Velvetleaf ([2]; 62 g ai/ha, 0 to 100 scale, 0 no effect, 100 complete control) | Velvetleaf plant response rating ([2]; 8 g ai/ha) | Velvetleaf plant response rating ([2]; 16 g ai/ha) | Corn plant response rating (corn (Zea mays); 8 g ai/ha, scale 0 to 100) | Corn plant response rating (corn (Zea mays); 16 g ai/ha, scale 0 to 100) | Plant response rating, Nutsedge, Yellow [5, 13] | Plant response rating, Nutsedge, Yellow ([5]; 62 g ai/ha, scale 0 to 100) | Nutsedge, Yellow plant response rating ([5]; 8 g ai/ha, scale 0 to 100) | Nutsedge, Yellow plant response rating ([5]; 16 g ai/ha, scale 0 to 100) | Plant response rating, Bromegrass, Downy [6, 15] | Bromegrass, Downy plant response rating ([6]; 8 g ai/ha, scale 0 to 100) | Plant response rating, Cocklebur [9, 14] | Plant response rating, Cocklebur ([9]; 62 g ai/ha, scale 0 to 100) | Cocklebur plant response rating ([9]; 8 g ai/ha, scale 0 to 100) | Plant response rating, Barnyardgrass [11, 16] | Plant response rating, Barnyardgrass [11, 17] | Plant response rating, Barnyardgrass [11, 19] | Plant response rating, Ducksalad [12, 16] | Plant response rating, Ducksalad [12, 17] | Plant response rating, Ducksalad [12, 19] | Plant response rating, Rice (rice (Oryza sativa); [16]) | Plant response rating, Rice (rice (Oryza sativa); [17]) | Plant response rating, Rice (rice (Oryza sativa); [19])
80: Plant response rating, Corn (corn (Zea mays); [14]) | Cupgrass, Woolly plant response rating ([7]; 16 g ai/ha, scale 0 to 100) | Plant response rating, Sedge, Umbrella [10, 18]
45: Plant response rating, Sedge, Umbrella [10, 19]
95: Plant response rating, Corn (corn (Zea mays); 62 g ai/ha, scale 0 to 100)

From patent US20100267561A1, “HERBICIDAL PYRIDAZINONE DERIVATIVES” (priority 2007, published 2010)
